Source: publication PMC9100673, “Acridine Based N-Acylhydrazone Derivatives as Potential Anticancer Agents: Synthesis, Characterization and ctDNA/HSA Spectroscopic Binding Properties” (Molecules, 2022)

What was measured:
Type in all cases: cell-based, human
CCD-18Co cells = test: MTT assay, metabolic activity of CCD-18Co fibroblasts; conditions: 48 h; for IC50: Homo sapiens, CCD-18Co
Procedure: The effect of acridine-benzohydrazides (3a–3d) on the metabolic activity of the lung adenocarcinoma cell line (A549) and the normal colon fibroblast cell line (CCD-18Co) was evaluated using a 3-(4,5-dimethylthiazol-2-yl)-2,5-diphenyltertrazolium bromide (MTT) cell assay. This assay is based on the metabolization of yellow MTT to purple formazan crystal by mitochondrial dehydrogenases, and therefore only metabolic active cells are capable of that reaction. The CCD-18Co cell line was used as a control to check for derivatives selectivity. The doxorubicin belongs to a group of anthracyclines, which represent the chemotherapeutic regiments for the treatment of NSCLC (non-small cell lung carcinoma) even today, and acts as antineoplastic mainly by interaction with the DNA topoisomerase II and by creating DNA single- and double-strand breaks. Previous studies described detailed cytotoxic effects of doxorubicin in the human lung adenocarcinoma A549 cell line. Doxorubicin resembles our compounds in its biological action; therefore, it was employed as a positive control.
Human lung carcinoma cell line A549 and CCD-18Co colon fibroblasts were purchased from the American Type Culture Collection (ATCC, Rockville, MD, USA). The A549 cells were cultured in a complete RPMI-1640 medium (Sigma-Aldrich, St. Louis, MO, USA) and CCD-18Co cells were cultured in a minimum essential medium (MEM) (PAN-Biotech GmbH, Aidenbach, Germany) at 37 °C, 95% humidity and 5% CO2. The media were supplemented with 10% fetal bovine serum (FBS, Biosera, Nuaille, France) and antibiotics (1% Antibiotic-Antimycotic 100 × and 50 × 10^−3 g L^−1 gentamicin, Biosera). Prior to the selected treatments, cells were seeded on 6- and/or 96-well plates (TPP, Trasadingen, Switzerland) and left to settle for 24 h. The acridine compounds solutions (at concentrations ranging from 5–75 µM) were then added to cells for 24 or 48 h, and analysis was subsequently performed.
MTT assays were performed in order to evaluate changes in the metabolic activity of cells that had occurred as a consequence of treatment with the acridine compounds. A549 cells (15 × 10^3 cells/cm^2) and CCD-18Co (15.625 × 10^3 cells/cm^2) were seeded in 96-well microplates. The A549 cells were treated for 24 and 48 h, and the CCD-18Co cells were treated for 48 h with different concentrations (5, 25, 50 and 75 µM) of the derivatives. After the treatment, the MTT (3-(4,5-dimethylthiazol-2-yl)-2,5-diphenyltertrazolium bromide) solution in PBS (5 mg mL^−1) was added to each well. The reaction was stopped after 4 h incubation, and the formazan was dissolved by the addition of SDS at a final concentration of 3.3%. The absorbance of formazan (λ = 584 nm) was measured using a BMG FLUOstar Optima spectrometer (BMG Labtech GmbH, Offenburg, Germany). The results were evaluated as percentages of the absorbance of the untreated control. Results are presented as the average percentage of cells from three independent experiments. IC50 values for the derivatives were extrapolated from a sigmoidal fit (dose-response curve) to the metabolic activity data using OriginPro 8.5.0 SR1 (OriginLab Corp., Northampton, MA, USA).

A549 cells [1] = test: Cell cycle analysis by flow cytometry; conditions: 25 and 50 μM, 48 h
Procedure: For flow cytometric analysis of the cell cycle distribution, floating and adherent cells were harvested together 48 h after treatment with the compounds (25 and 50 µM), washed in cold PBS, fixed in cold 70% ethanol, and stored overnight at −20 °C. Prior to analysis, the cells were washed twice in PBS, resuspended in a staining solution (0.1% Triton X-100, 0.137 g L^−1 ribonuclease A and 0.02 g L^−1 propidium iodide (PI) and incubated in dark conditions at RT for 30 min. The DNA content was analysed using a BD FACSCalibur flow cytometer (Becton Dickinson, San Jose, CA, USA) with a 488 nm argon-ion excitation laser, and fluorescence was detected using a 585/42 nm band-pass filter (FL-2). ModFit 3.0 software (Verity Software House, Topsham, ME, USA) was used to generate DNA content frequency histograms and to quantify the percentage of cells in the individual cell cycle phases. The results are presented as the average ratio of cells in the individual phase to all cells from three independent experiments.

A549 cells [2] = test: Quantification of cell number and viability (eosin staining, Bürker chamber); conditions: 50 μM, 48 h
Procedure: For the assessment of total cell numbers and viability within individual experimental groups, floating and adherent cells were harvested after treatment with the studied compounds and evaluated using a Bürker chamber with eosin staining. A549 cells were plated at a density of 135 × 10^3 cell/well into a 6-well plate and treated with different concentration of derivatives (25 and 50 µM) for 48 h. The total cell number was expressed as a percentage of the untreated control of the total cell number. Viability was expressed as a percentage of viable, eosin negative cells. The results are presented as the average percentage of cells from three independent experiments.

A549 cells [3] = test: Colony forming (clonogenic) assay; conditions: 48 h treatment, 7 days cultivation; for effect on ability of A549 cells to form new colonies: 25 μM; for reduction of clonogenic ability of A549 cells vs control: 50 μM
Procedure: To assess drug efficacy and prevent treatment failure, it is important to observe whether cancer cells may proliferate during the interval between treatments. The clonogenic assay evaluates the efficacy of new drugs by observation of reduced repopulation of cancer cells and cell survival after treatment. This assay is important to select eligible anticancer drug candidates. The clonogenic survival was analysed after treatment of A549 cells with the compounds 3a and 3c. DMSO (0.5%) was used as solvent control. A549 cells were treated with 3a and 3c in concentrations of 25 and 50 μM for 48 h. The cells were then counted, and 500 viable cells per well were seeded and cultivated for another seven days under standard conditions.
For the colony forming assay, floating and adherent cells were harvested together 48 h after treatment with the studied compounds (25 and 50 µM). The cells were then counted using a Bürker chamber with eosin staining and 500 viable cells per well were seeded in 6-well plates. After seven days of cultivation under standard conditions, the cells in the plates were fixed and stained with 1% methylene blue dye in methanol. Visualized colonies were scanned and counted by Image software, and the results were evaluated as percentages of the untreated control. The results are presented as the average percentage of colonies from three independent experiments.

Row | Compound | IC50 (CCD-18Co cells) [µM] | times less activity than doxorubicin in CCD18-Co (CCD-18Co cells; from IC50) | effect on cell cycle distribution (A549 cells [1]) | decrease of viability of A549 cells vs control (A549 cells [2]) [%] | reduction of total cell number vs control (A549 cells [2]) | effect on ability of A549 cells to form new colonies (A549 cells [3]) | reduction of clonogenic ability of A549 cells vs control (A549 cells [3]) [%]
1 | O=C(N/N=C/c1cccc2cc3ccccc3nc12)c1ccc(Br)cc1 [3d, N′-[(E)-Acridin-4-ylmethylidene]-4-bromobenzohydrazide] | 17 | – | – | – | – | – | –
2 | O=C(N/N=C/c1cccc2cc3ccccc3nc12)c1ccccc1 [3a, N′-[(E)-(Acridin-4-yl)methylidene]benzohydrazide] | > 75 | > 15 | accumulation of cells in the G2/M phase | 34 | approximately 94% | did not significantly reduce | 72
3 | O=C(N/N=C/c1cccc2cc3ccccc3nc12)c1ccc(Cl)cc1 [3c, N′-[(E)-Acridin-4-ylmethylidene]-4-chlorobenzohydrazide] | 16 | – | accumulation of cells in the G2/M phase | 14 | ~91% | did not significantly reduce | 74
4 | O=C(N/N=C/c1cccc2cc3ccccc3nc12)c1ccc(F)cc1 [3b, N′-[(E)-Acridin-4-ylmethylidene]-4-fluorobenzohydrazide] | 8 | – | – | – | – | – | –
